Reference: US9890152B2 (Genentech, Inc., priority 2012, dated 2018)

Assays:
[1] = target: T1, EGFR del746-750 T790M (Homo sapiens, UniProt P00533, DEL746-750/T790M); assay: EGFR del746-750 T790M biochemical assay (Caliper mobility shift); conditions: 5 μM ATP, 30 min, room temperature; apparent Ki (Morrison) converted by Cheng-Prusoff, Km of ATP 2.1 μM; read-out: EGFR(T790M/d746-750) Ki
T1 construct: purchased Carna Biosciences 08-528

[2] = target: T2, phosphor-EGFR in H1975(L585R/T790M) mutant EGFR expressing cells (Homo sapiens, UniProt P00533, L858R/T790M); assay: H1975 pEGFR MSD cellular assay; format: cell-based; conditions: NCI-H1975 cells, serum starved, 1 hour compound incubation, pEGFR Tyr1068 MSD
T2 construct: host or cells: NCI-H1975
Protocol: H1975 pEGFR MSD Cellular Assays Background:
These assays are intended for determining cellular. […] (Meso Scale Discovery Catalog# N31CB-1).
All cell culture reagents were purchased from Invitrogen/Gibco. Cells are cultured at 37° C. at 5% CO2 and split as recommended by ATCC.
Cell Plating and Serum Starvation:
After six hours, culture medium is aspirated and replaced with serum-free culture medium. Cells are then incubated with the serum-free medium overnight at 37° C. and 5% CO2.
The following day, test compounds are serially diluted in dimethyl sulfoxide (DMSO) and added to cells in serum free medium (final DMSO concentration 0.5%). Assay plates are then incubated for 1 hour at 37° C. and 5% CO2. Following 1 hour of compound incubation cells are then lysed and processed as per the MSD pEGFR assay kit protocol. Cell lysates are added to assay plates pre-coated with antibodies against phosphorylated EGFR. Phosphorylated EGFR in samples are allowed to bind to the capture antibodies overnight at 4° C. The detection antibody (anti-total EGFR, labeled with an electrochemiluminescent SULFO-TAG) is added to the bound lysate and incubated for 1 hour at room temperature. The MSD Read Buffer is added such that when a voltage is applied to the plate electrodes, the labels bound to the electrode surface emit light. The MSD Sector Instrument measures the intensity of the light, and quantitatively measures the amount of phosphorylated-EGFR in the sample. Percent inhibition of EGFR phosphorylation by varying concentrations of test compounds is calculated relative to untreated controls. EC50 values are calculated using the 4 parameter logistic nonlinear regression dose-response model.

T1 sequence (P00533 with tags, fused parts or gaps DEL746-750/T790M limits assumed): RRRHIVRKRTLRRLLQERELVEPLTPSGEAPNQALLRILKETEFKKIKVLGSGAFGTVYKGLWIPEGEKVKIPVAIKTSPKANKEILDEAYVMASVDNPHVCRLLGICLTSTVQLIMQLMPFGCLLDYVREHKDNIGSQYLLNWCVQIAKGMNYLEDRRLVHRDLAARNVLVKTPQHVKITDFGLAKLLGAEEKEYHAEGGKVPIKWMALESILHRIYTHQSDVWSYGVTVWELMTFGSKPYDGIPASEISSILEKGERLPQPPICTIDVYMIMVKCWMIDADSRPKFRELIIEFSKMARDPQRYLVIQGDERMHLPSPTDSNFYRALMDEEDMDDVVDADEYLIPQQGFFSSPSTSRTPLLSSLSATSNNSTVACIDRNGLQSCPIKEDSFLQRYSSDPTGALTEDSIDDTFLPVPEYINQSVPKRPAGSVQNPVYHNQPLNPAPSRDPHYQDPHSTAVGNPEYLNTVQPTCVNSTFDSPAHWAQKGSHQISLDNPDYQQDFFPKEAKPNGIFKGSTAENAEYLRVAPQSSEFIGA
T2 sequence (P00533 25-1210 T790M/L858R): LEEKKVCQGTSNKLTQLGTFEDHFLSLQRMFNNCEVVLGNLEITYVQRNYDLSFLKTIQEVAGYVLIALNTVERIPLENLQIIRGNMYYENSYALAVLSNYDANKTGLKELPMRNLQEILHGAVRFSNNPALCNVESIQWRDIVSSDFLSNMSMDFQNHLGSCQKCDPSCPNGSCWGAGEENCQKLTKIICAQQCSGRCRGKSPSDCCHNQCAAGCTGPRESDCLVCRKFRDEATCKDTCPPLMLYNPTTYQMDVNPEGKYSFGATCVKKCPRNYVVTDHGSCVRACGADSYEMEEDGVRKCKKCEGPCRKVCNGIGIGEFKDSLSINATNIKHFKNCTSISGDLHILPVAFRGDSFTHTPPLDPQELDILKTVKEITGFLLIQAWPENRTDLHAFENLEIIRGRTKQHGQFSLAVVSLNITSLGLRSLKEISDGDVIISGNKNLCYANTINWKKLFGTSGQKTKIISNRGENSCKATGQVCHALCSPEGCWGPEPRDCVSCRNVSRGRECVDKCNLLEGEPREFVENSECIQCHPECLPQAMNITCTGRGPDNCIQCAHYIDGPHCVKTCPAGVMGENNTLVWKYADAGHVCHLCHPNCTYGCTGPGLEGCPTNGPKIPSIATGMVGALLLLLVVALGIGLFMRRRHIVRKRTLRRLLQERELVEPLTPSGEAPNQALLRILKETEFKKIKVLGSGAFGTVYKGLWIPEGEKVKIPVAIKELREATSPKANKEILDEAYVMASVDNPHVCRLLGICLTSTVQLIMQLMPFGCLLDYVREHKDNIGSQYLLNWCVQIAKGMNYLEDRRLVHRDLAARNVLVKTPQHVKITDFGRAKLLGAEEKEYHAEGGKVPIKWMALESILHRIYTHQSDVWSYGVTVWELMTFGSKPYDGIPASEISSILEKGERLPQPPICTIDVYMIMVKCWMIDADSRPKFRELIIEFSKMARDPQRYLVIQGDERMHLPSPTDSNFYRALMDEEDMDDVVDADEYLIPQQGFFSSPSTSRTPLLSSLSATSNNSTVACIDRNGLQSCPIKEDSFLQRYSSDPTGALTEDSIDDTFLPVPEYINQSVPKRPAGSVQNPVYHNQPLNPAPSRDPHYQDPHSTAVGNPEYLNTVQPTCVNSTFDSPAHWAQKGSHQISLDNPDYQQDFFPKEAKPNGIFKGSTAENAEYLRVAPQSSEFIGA

Compound	Ki [1] [nM]	EC50 [2] [nM]
COC1CCN(c2nccc(Nc3cc4c(cn3)c(-c3nnc(C)o3)cn4C(C)C)n2)CC1 [Example 59, 1-Isopropyl-N-(2-(4-methoxypiperidin-1-yl)pyrimidin-4-yl)-3-(5-methyl-1,3,4-oxadiazol-2-yl)-1H-pyrrolo[3,2-c]pyridin-6-amine]	28.7	583
COC1CCN(c2nccc(Nc3cc4c(cn3)nc(C(F)F)n4C(C)C)n2)CC1 [Example 110, 2-(difluoromethyl)-1-isopropyl-N-(2-(4-methoxypiperidin-1-yl)pyrimidin-4-yl)-1H-imidazo[4,5-c]pyridin-6-amine]	144	623
COC1CCN(c2nccc(Nc3cc4c(cn3)c(C(N)=O)cn4C(C)C)n2)CC1 [Example 115, 1-isopropyl-6-((2-(4-methoxypiperidin-1-yl)pyrimidin-4-yl)amino)-1H-pyrrolo[3,2-c]pyridine-3-carboxamide]	28.5	710
CC(C)n1c(Cl)c(C(=O)NC2CCOCC2)c2cnc(Nc3ccnc(-c4cnn(S(=O)(=O)C5CC5)c4)n3)cc21 [Example 262, 2-Chloro-6-(2-(1-(cyclopropylsulfonyl)-1H-pyrazol-4-yl)pyrimidin-4-ylamino)-1-isopropyl-N-(tetrahydro-2H-pyran-4-yl)-1H-pyrrolo[3,2-c]pyridine-3-carboxamide]	1.48	57.7
CC1(C)COc2nc3cnc(Nc4ccnc(-c5cnn(S(=O)(=O)C6CC6)c5)n4)cc3n21 [Example 280, [2-(1-Cyclopropanesulfonyl-1H-pyrazol-4-yl)-pyrimidin-4-yl]-(3,3-dimethyl-2,3-dihydro-1-oxa-3a,6,8-triazacyclopenta[a]inden-5-yl)-amine]	8.86	1740
CCNc1ncc(-c2nccc(Nc3cc4c(cn3)nc(C)n4C(C)C)n2)s1 [Example 295, [2-(2-Ethylaminothiazol-5-yl)pyrimidin-4-yl](1-isopropyl-2-methyl-1H-imidazo[4,5-c]pyridin-6-yl)amine]	1.77	80.6
CNc1ncc(-c2nccc(Nc3cc4c(cn3)nc(C)n4C(C)C)n2)s1 [Example 312, (1-Isopropyl-2-methyl-1H-imidazo[4,5-c]pyridin-6-yl)-[2-(2-methylaminothiazol-5-yl)pyrimidin-4-yl]amine]	0.84	112
CC(=O)Nc1cn(C(C)C)c2cc(Nc3ccnc(-c4cnn(S(=O)(=O)C5CC5)c4)n3)ncc12 [Example 327, N-(6-((2-(1-(Cyclopropylsulfonyl)-1H-pyrazol-4-yl)pyrimidin-4-yl)amino)-1-isopropyl-1H-pyrrolo[3,2-c]pyridin-3-yl)acetamide]	0.53	105
Cc1c(C(=O)NC2CCOCC2)c2cnc(Nc3ccnc(-c4cnn(S(=O)(=O)C5CC5)c4)n3)cc2n1C(C)C [Example 335, 6-((2-(1-(Cyclopropylsulfonyl)-1H-pyrazol-4-yl)pyrimidin-4-yl)amino)-1-isopropyl-2-methyl-N-(tetrahydro-2H-pyran-4-yl)-1H-pyrrolo[3,2-c]pyridine-3-carboxamide]	2.28	252
CC(C)n1cc(-c2cnn(CCO)c2)c2cnc(Nc3ccnc(-c4cnn(S(=O)(=O)C5CC5)c4)n3)cc21 [Example 393, 2-(4-(6-((2-(1-(cyclopropylsulfonyl)-1H-pyrazol-4-yl)pyrimidin-4-yl)amino)-1-isopropyl-1H-pyrrolo[3,2-c]pyridin-3-yl)-1H-pyrazol-1-yl)ethanol]	1.12	10.9
CC(C)n1cc(C(=O)NC2CCOCC2)c2cnc(Nc3ccnc(-c4cnn(S(=O)(=O)C5CC5)c4)n3)cc21 [Example 396]	1.47	76.9
CC(C)n1c(CO)nc2cnc(Nc3ccnc(N4C[C@H]5CC[C@@H](C4)[C@H]5O)n3)cc21 [Example 433, (1R,5S,8r)-3-(4-((2-(hydroxymethyl)-1-isopropyl-1H-imidazo[4,5-c]pyridin-6-yl)amino)pyrimidin-2-yl)-3-azabicyclo[3.2.1]octan-8-ol]	17.2	2190
CC1(C)CCOc2nc3cnc(Nc4ccnc(-c5cnn(S(=O)(=O)C6CC6)c5)n4)cc3n21 [Example 534, [2-(1-Cyclopropanesulfonyl-1H-pyrazol-4-yl)-pyrimidin-4-yl]-(4,4-dimethyl-3,4-dihydro-2H-1-oxa-4a,7,9-triazafluoren-6-yl)amine]	5.61	1370
COC1CCN(c2nccc(Nc3cc4c(cn3)nc([C@@H](C)O)n4[C@@H](C)C(F)(F)F)n2)CC1F (stereo partly drawn) [Example 543, (R)-1-[6-[2-(3-Fluoro-4-methoxypiperidin-1-yl)-pyrimidin-4-ylamino]-1-((S)-2,2,2-trifluoro-1-methyl-ethyl)-1H-imidazo[4,5-c]pyridin-2-yl]ethanol]	5.81	24.7
